Laboratory results reported in patent EP0004835A1, “Ethanolamine compounds, processes for their preparation, pharmaceutical preparations containing them and their medicinal use” (priority 1978, dated 1979).
“And” between values parts separate entries of the source, which are not always exact repeats. Equal entries are not always repeated. Structures can show the parent of a compound that is named as a salt. Where two headings read alike, the source gives them in different places.

Experiments:
[1] = test system: electrically induced contractions of the soleus muscle; assay: Tremorogenic effect in anaesthetized cat (soleus muscle, simultaneous recording); format: in vivo; settings: narcotized cat, i.v., based on molar dose giving 30 % decrease of electrically induced soleus contractions, terbutaline = 1
Method: (§1) A. Simultaneous recording of bronchospasmolytic effect, tremorogenic effect and heart stimulating effect
(§2) The bronchospasmolytic effect and the tremorogenic effect were measured simultaneously in anaesthetized cat.
(§3) The method used is described in detail by 0 A T Olsson, Acta pharmacol et toxicol 34, 106-114 (1974).
(§4) Cats weighing 2.5-3.5 kg are anaesthetized with pento- barbital (mebumalum NFN) at first by an intraperitoneal injection (30 mg/kg) and afterwards by continuous intravenous infusion to keep the level of anaesthesia constant during the experiment.
The soleus muscle in the hind limb, consisting mainly a -slow contracting fibres, is prepared essentially according to Bowman & Zaimis, J Physiol 144, 92-107 (1958). The muscle is enclosed in a chamber made of a rubbercovered plastic "hair-curler". The entire leg is wrapped in metal foil covered with plastic to keep the temperature constant at 35-36°C (controlled by thermo couples in the.leg). The cat is placed on its back on a thermostatically controlled operation table and the right hind limb fixed, special care being taken not to impede the blood flow.The tendon is cut and attached to a Grass strain gauge (FT 10C). The isometric tension of the muscle is calibrated to 50 g (resting tension) and 500 g (maximal tension). A plexiglas shielded bipolar Pt-electrode is placed on the tibialis nerve, near the soleus. The incomplete tetanic contractions of the muscle are elicited by a square wave pulse stimulation of the nerve by the use of a Grass S48 stimulator. The pulse duration is 0.05 msec, with frequencies selected in the range 8-12 Hz and the strength between 5-8. volts. The stimulation occurs for 1.8 sec every 20 sec.
(§5) The bronchospasmolytic effect is measured as the dose, calculated in moles per kg bodyweight of the test animal, which gives 30 % decrease of the histamine induced bronchospasm. […] The heart stimulating effect is measured as the dose, calculated in moles per kg bodyweight of the test animal, which gives 25 % increase in the heart frequency.

[2] = test system: heart frequency; assay: Heart stimulating effect in anaesthetized cat (simultaneous recording); format: in vivo
Method: as §1, §3, §4
Arterial blood pressure is measured with a Statham transducer from a cannulated carotid artery. Heart frequency is monitored by means of a tachometer set to trigger off the R-wave of the electro-cardiogram.
as §5

[3] = test system: histamine induced bronchospasm; assay: Bronchospasmolytic effect in anaesthetized cat (simultaneous recording); format: in vivo; settings: narcotized cat, i.v. (brachial vein), based on molar dose giving 30 % decrease of histamine induced bronchospasm, terbutaline = 1
Method: as §1, §2, §3, §4
The trachea is cannulated and the lungs inflated with room air by means of a constant volume Braun-respirator. The frequency is 15-20 per min and the tidal volume 8-10 ml per kg, or just sufficient to suppress spontaneous breathing movements and to give about 150 ml/kg/min. The change in tidal volume from administered constricting agents is measured as the amount of air overflow from the delivery of a constant volume to a fixed respiration. The pressure is determined by a water (60-70 mm) pressure threshold and respiratory overflow determined by means of a Grass-volumetric pressure transducer PT 5A. Bronchial tone is increased by inhalation of a histamine aerosol generated in a Roth-Petersen nebulizer from a solution containing 0.1-0.3 mg/ml of histamine and made up to 5 % by glycerol. The nebulizer is connected to the inlet of the respirator when bronchospasm is to be produced. When the respiratory overflow has reached an even level, .the compound to be tested for bronchorealxing activity is injected into the brachial vein.
as §5

[4] = molecular target: a-receptor; assay: a-receptor blocking activity, noradrenaline-induced contraction of rabbit aortic strips; parameters: species or system Albino rabbits; settings: for IC50: compound added 10 minutes before noradrenaline, called EC 50, 6 preparations from 3 animals, read-out: Concentration inhibiting 50 % noradrenaline-induced contraction
From the text: The a-receptor blocking activity of two compounds of the invention was investigated. This effect is relevant in the treatment of asthma. It has been shown, e.g. by Nousiainen et al, Pharmacology 15, 469-477 (1977), that certain compounds having a-blocking effect may potentiate the effects of S-receptor-stimulating agents such as terbutaline.
In the test, the a-receptor blocking substance thymoxamine was used as reference.
Albino rabbits of both sexes (2-3 kg) were used. About 5 cm of the aorta was dissected out as near the arch as possible, transferred to a dish with Krebs solution and cut spirally. Usually 3 preparations were received from the dissected piece of vessel. Each strip was mounted in an organ bath in Krebs solution of 37°C and aerated with carbogen. The load on the preparation was 2 g and the tension changes recorded isometrically on Grass transducer FR03 and polygraph P5.
Noradrenaline, which is a strong a-receptor stimulating agent, exerts a contracting effect on the aortic strips when added to the bath. The a-receptor blocking effect of the test compound is measured by adding the test compound to the organ bath before adding nor-adrenaline.
Noradrenaline solution with a concentration producing 70-80 % of maximal contraction (0.03-0.06 µg/ml) was used. The test compound was added to the organ bath 10 minutes before the addition of noradrenaline.
The results are measured as the concentration of the test compound which inhibits the noradrenaline-induced contraction by 50 % (EC 50).
The EC 50 values are based on tests on 6 preparations obtained from 3 animals.

[5] = molecular target: rat uterus (Rattus norvegicus, UniProt P10608); assay: Inhibitory activity on oxytocin and carbachol induced contractions of rat uterus in vitro; parameters: species or system Sprague-Dawley rats; settings: result in words
Sequence of rat uterus (P10608 whole entry): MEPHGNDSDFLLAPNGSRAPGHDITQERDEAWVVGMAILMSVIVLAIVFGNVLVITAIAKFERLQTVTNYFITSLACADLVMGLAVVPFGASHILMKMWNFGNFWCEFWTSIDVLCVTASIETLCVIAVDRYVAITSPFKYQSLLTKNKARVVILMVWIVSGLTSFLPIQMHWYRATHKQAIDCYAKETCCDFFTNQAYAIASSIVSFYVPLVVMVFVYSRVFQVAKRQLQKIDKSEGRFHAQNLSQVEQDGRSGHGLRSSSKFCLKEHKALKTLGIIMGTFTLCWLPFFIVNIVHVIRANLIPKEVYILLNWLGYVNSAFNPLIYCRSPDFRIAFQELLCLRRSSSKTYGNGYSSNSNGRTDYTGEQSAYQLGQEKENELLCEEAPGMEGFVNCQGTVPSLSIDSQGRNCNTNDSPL
Method: 'The uterus relaxing effect of the compounds of the invention was tested. Terbutaline was used as reference substance.
Female Sprague-Dawley rats, 150-200 g, were used. An oestrogen steroid (Estradurin, Leo), 0.25 mg/100 g, was administered s.c. 4-6 days before the experiments to bring the animals in oesterus.
The uterus horn were cut open longitudinally, mounted in organ baths in Locke solution at 33°C and gassed with carbogen. The contraction of the preparation was producted by oxytocin (Partocon, Ferring) or carbachol and given to the bath 3 min after administration of the test substance in a dose producing 70-80 % of the maximum contraction or 0.005-0.02 IE/ml of oxytocin and 0.2-0.6 µg/ml of carbacho- line chloride. The inhibitory effect produced by the test substance was eliminated by propranolol (1 µg/ml or 0.4x10^-5 M given to the bath 15 minutes before the drugs).
The tension changes were recorded isometrically (transducer FP03 and Grass polygraph P5).
The results are given as the concentration of the test compound which reduces the contraction induced by oxytocin and carbachol, respectively, by 50 % (EC 50).
Oxytocinseries: 10 preparations from 6 animals Carbacholseries: 9 preparations from 5 animals

[6] = test system: histamine induced bronchoconstriction; assay: Bronchospasmolytic activity at oral and subcutaneous administration, histamine aerosol, unanaesthetized guinea-pigs; format: in vivo; settings: for ED50: Cavia porcellus, read-out: Dose protecting 50 % of the test animals against the histamine aerosol during more than 4 minutes (ED50)
Method: .The bronchospasmolytic activity of a compound of the invention at oral administration was tested on guinea-pigs. The compound according to Example 1 having the code designation D 2343, was tested. Terbutaline was used as reference substance.
The bronchospasmolytic effect was tested as the inhibitory effect on histamine induced bronchoconstriction in unanaesthetized guinea-pigs.
The test animals were exposed to a histamine mist generated by a Roth-Petersen nebulizer from a solution of 0.3 mg/ml of histamine-chloride.
Guinea-pigs, strain Dunkin-Hartle.y, both sexes, 190-250 g were used. Saline treated control animals start a forced and irregular breathing after less than 4 minutes exposure to the aerosol. Drug-treated animals sustaining the histamine aerosol 4 minutes without a breathing influence are regarded as protected. In the study with oral administration, the animals were starved for about 15 hours with water ad libitum before D 2343 or terbutaline was administered by a stomach tube.
Each compound was administered to 30-40 animals.
In the investigation with oral administration the time from drug administration to exposure of the animal to histamine was 30 minutes.
The ED50 doses are calculated on molar basis in moles per kg bodyweight of the test animal.

[7] = Acute toxicity in mice; settings: mouse, in vivo
Method: The acute toxicity of the compound D 2343 of the invention was investigated.
Male mice (NMRI) 20-25 g were used. The test compound was administered intravenously (by tail vein), subcutaneously. intraperitoneally and orally (by stomach tube to starved animals) in 6 dose levels in log- sequence with 10 or more animals tested at each dose level to determine the LD50'
After toxic doses the death followed within the first hour after i.v., s.c. and i.p. and during the first three hours after p.o. administration. No further mortality was noted during the following 5 days the animals were observed.

[8] = test system: histamine induced bronchoconstriction; assay: Onset and duration of bronchospasmolytic activity after oral administration, histamine aerosol, unanaesthetized guinea-pigs; format: in vivo; settings: result in words
Method: These compounds have the structural formulas [drawing 91] (Compound of Example 1) [drawing 92] (Compound of Example 4) The bronchospasmolytic effect was tested as the inhibitory effect on histamine induced bronchoconstriction in unanaesthetized guinea-pigs. The test animals were exposed to a histamine mist generated by a Roth-Petersen nebulizer from a solution of 0.3 mg/ml of histamine-chloride. Guinea-pigs, strain Dunkin-Hartley, both sexes, 160-230 g were used. Saline treated control animals start a forced and irregular breathing after less than 4 minutes exposure to the aerosol. Drug-treated animals sustaining the histamine aerosol 4 minutes without a breathing influence are regarded as protected. The animals were starved for about 15 hours with water ad libitum before the test compound was administered by a stomach tube. Each of the test substances was given in an amount of 4.10^-6 mole/kg bodyweight. Groups of 8-10 animals were tested in the aerosol at 7, 15, 30, 60 and 120 minutes after administration of the test substance. The percentage of the animals which could withstand the aerosol for 4 minutes and for 10 minutes was determined.

[9] = 0.5 h, Oral administration (stomach tube, starved), 30 minutes before histamine
[10] = sc, 0.25 h, Subcutaneous administration, 15 minutes before histamine challenge

COc1ccccc1CC(C)(C)NCC(O)c1ccc(O)cc1 (centres unmarked) [D 2331, 1-(4-Hydroxyphenyl)-2-[1,1-dimethyl--2-(2-methoxyphenyl)ethylaminol]ethanol sulfate]
Tremorogenic effect in relation to the tremorogenic effect of terbutaline [1]: 0.011±0.004 | Heart stimulating effect in relation to the heart stimulating effect of terbutaline ([2]; narcotized cat, i.v., based on molar dose giving 25 % increase in heart frequency, terbutaline = 1): 0.02 | Bronchospasmolytic effect in relation to the bronchospasmolytic effect of terbutaline [3]: 0.12±0.03

COc1ccccc1CCC(C)(C)NCC(O)c1ccc(O)cc1.Cl (centres unmarked) [D 2343, 1-(4-hydroxyphenyl)--2-[1,1-dimethyl-3-(2-methoxyphenyl)propylamino]-ethanol hydrochloride]
Tremorogenic effect in relation to the tremorogenic effect of terbutaline ([1]; hydrochloride): 0.5 and 0.5 ±0.1 | IC50 ([4]; rabbit aortic strips): 600 ± 200 nM | a-receptor blocking activity compared with thymoxamine ([4]; rabbit aortic strips, result in words): higher than the a-blocking effect of thymoxamine | a-blocking effect in relation to β-stimulating effect ([4]; result in words, no data shown): obtained in the same dose range as its β-stimulating effect | potency as uterus relaxing agent compared with terbutaline [5]: more potent as uterus relaxing agent than terbutaline | ED50 [6, 9]: 2.51 ± 0.39 µmol/kg | ED50 [6, 10]: 0.34 ± 0.06 µmol/kg | times more active than terbutaline ([6]; oral administration): 2.1 times | times more active than terbutaline ([6]; subcutaneous administration): 2.7 times | Bronchospasmolytic effect in relation to the bronchospasmolytic effect of terbutaline ([3]; hydrochloride): 2.9 ±0.6 | LD50 ([7]; ip, male mice (NMRI)): 45 mg/kg | LD50 ([7]; ip, male mice (NMRI), M = 378.5): 120 µmol/kg | LD50 ([7]; iv, male mice (NMRI)): 13 mg/kg | LD50 ([7]; iv, male mice (NMRI), M = 378.5): 35 µmol/kg | LD50 ([7]; po, starved male mice (NMRI)): 170 mg/kg | LD50 ([7]; po, starved male mice (NMRI), M = 378.5): 450 µmol/kg | LD50 ([7]; sc, male mice (NMRI)): 50 mg/kg | LD50 ([7]; sc, male mice (NMRI), M = 378.5): 130 µmol/kg

COc1ccccc1CCC(C)(C)NCC(O)c1ccc(OC(=O)C(C)(C)C)cc1 (centres unmarked) [D 2367, 1-[4-Pivaloyloxy-phenyl]-2-[1,1-dimethyl-3-(2-methoxyphenyl)propylaminolethanol sulfate]
Tremorogenic effect in relation to the tremorogenic effect of terbutaline [1]: 0.23 ±0.07 | Heart stimulating effect in relation to the heart stimulating effect of terbutaline ([2]; cat, in vivo, iv): 0.16±0.05 | duration of bronchospasmolytic activity [8]: considerably prolonged compared to the duration of the compound of example 1 | Bronchospasmolytic effect in relation to the bronchospasmolytic effect of terbutaline [3]: 0.28±0.07

COc1ccccc1CCC(C)(C)NCC(O)c1ccc(OC(=O)c2ccc(C)cc2)cc1 (centres unmarked) [D 2375, 1-[4-(4-Methylbenzoyloxy)--phenyl]-2-[1,1-dimethyl-3-(2-methoxyphenyl)propylaminolethanol sulfate]
Tremorogenic effect in relation to the tremorogenic effect of terbutaline [1]: 0.18 ±0.03 | Heart stimulating effect in relation to the heart stimulating effect of terbutaline ([2]; cat, in vivo, iv): 0.26±0.04 | Bronchospasmolytic effect in relation to the bronchospasmolytic effect of terbutaline [3]: 0.25±0.05

CCOc1ccccc1CCC(C)(C)NCC(O)c1ccc(O)cc1 (centres unmarked) [D 2388, 1-(4-hydroxyphenyl)-2-[1,1--dimethyl-3-(2-ethoxyphenyl)propylamino]-ethanol hydrochloride]
Tremorogenic effect in relation to the tremorogenic effect of terbutaline [1]: 0.8±0.2 | Heart stimulating effect in relation to the heart stimulating effect of terbutaline ([2]; cat, in vivo, iv): 1 | Bronchospasmolytic effect in relation to the bronchospasmolytic effect of terbutaline [3]: 1.4±0.2

CC(C)(C)NCC(O)c1cc(O)cc(O)c1 (centres unmarked) [Terbutaline, terbutaline, reference compound]
Tremorogenic effect in relation to the tremorogenic effect of terbutaline [1]: 1 | Heart stimulating effect in relation to the heart stimulating effect of terbutaline ([2]; cat, in vivo, iv): 1 | ED50 [6, 9]: 5.28 ± 0.86 µmol/kg | ED50 [6, 10]: 0.93 ± 0.14 µmol/kg | Bronchospasmolytic effect in relation to the bronchospasmolytic effect of terbutaline [3]: 1

CC(=O)Oc1cc(C(C)C)c(OCCN(C)C)cc1C [Thymoxamine, thymoxamine, reference compound]
IC50 ([4]; rabbit aortic strips): 1500 ± 400 nM

COc1ccccc1CC(C)(C)NCC(O)c1ccc(O)cc1 (centres unmarked) [[drawing]]
IC50 ([4]; rabbit aortic strips): 500 ± 200 nM
